Patent US20170209443A1, “ANTI-INFLAMMATORY EFFECT OF ORALLY ACTIVE FYN KINASE INHIBITOR SARA-CATINIB (AZD 0530) AGAINST PARKINSON'S DISEASE AND OTHER RELATED NEURODEGENARATIVE DISEASES” (Iowa State University Research Foundation, Inc., priority 2016, published 2017)
Entries after “also recorded” stand apart in the source; their conditions may differ. Residues, ends and D or L forms follow the SMILES beside them. *: point of attachment. Cbz = O=C(OCc1ccccc1)*; CH2F = FC*

How the values were obtained:
[1] = tested on: microglial cell line; assay: cell viability assay in microglial cell line; assay type: cell-based; conditions: FIG. 26A
Procedure: (§1) In this study microglial cell line were pretreated with 1-30 μM Saracatinib, a Fyn kinase inhibitor followed by aggregated α-synuclein (1 μM) for 24 hours in a 96 well plate.

[2] = tested on: MPTP-treated mice; assay: microglia activation (IBA-1) in substantia nigra, acute MPTP mouse model; assay type: in vivo, C57 black mice; conditions: FIG. 27; for expression of IBA-1 in SN tissue (Western blot): oral 5 mg/kg once on days 1 and 2, MPTP 18 mg/kg x 4 i.p., 24 hrs after last MPTP
Procedure: Thus, we evaluated whether the Sarcanatib attenuates microglial activation in the substantia nigra. C57 black mice were orally administered saracatinib (5 mg/kg, once) on days 1 and 2. On day 2, after sarcanatib administration, mice were subject to acute MPTP regimen. Mice were administered 18 mg/kg MPTP (4 i.p. injections at 2 hour intervals) and control animals received saline. Mice were sacrificed 24 hrs post last MPTP injection. Brain harvested and nigral tissue lysates were subject to Western blot analysis.

[3] = tested on: microglial cell line; assay: Luminex cytokine assay, aggregated α-synuclein induced pro-inflammatory cytokines; assay type: cell-based; conditions: 1-30 μM pretreatment, aggregated α-synuclein (1 μM) 24 hours; FIG. 26C
Procedure: Primary microglia obtained from wild-type, PKCδ^−/− and Fyn^−/− mice were seeded in poly-D-lysine-coated 96-well plates at 1×10^5 cells/well. The cells were treated for 24 h with 100-200 ng/mL LPS or 10 ng/mL TNFα. After treatment, 50 μL of supernatant from each well was collected and frozen at −80° C. The levels of cytokines and chemokines in the supernatants were determined using the Luminex bead-based immunoassay platform (Vignali 2000) and pre-validated multiplex kits (Milliplex mouse cytokine panel Millipore) according to the manufacturer's instructions.
as §1

[4] = tested on: microglial cell line; assay: Griess assay, aggregated α-synuclein induced nitrite production; assay type: cell-based; conditions: FIG. 26B
Procedure: Nitric oxide production by primary microglia was measured indirectly by quantification of nitrite in the supernatant using the Griess reagent (Sigma Aldrich). Microglia were plated in poly-D-lysine-coated 96-well plates at 1×10^5 cells/well. Cells were treated with 100 ng/mL of LPS for 24 h and after 100 μL of supernatant was collected from each well, an equal volume of the Griess reagent was added. The samples were incubated on a plate shaker at room temperature for 15 min until a stable color was obtained. The absorbance at 540 nm was measured using a Synergy 2 multi-mode microplate reader (BioTek Instruments) and the nitrite concentration was determined from a sodium nitrite standard curve.
as §1

[5] = tested on: immortalized WT microglial cells; assay: aggregated αSyn-induced IL-1β secretion from unprimed immortalized microglial cells; assay type: cell-based; conditions: pre-treatment before aggregated αSyn, FIG. 19B
Text: The current model of the NLRP3 inflammasome postulates a two-step mechanism. A TLR or TNFR1 agonist, acting as the initial signal, induces the expression of pro-[…] and NLRP3 proteins. Subsequently, a second signal causes lysosomal rupture, mitochondrial ROS generation and/or K^+ efflux that acts as a danger signal resulting in the assembly and activation of the inflammasome complex and the processing and secretion of IL-1β into the cell supernatant. Since we observed that αSyn can signal the inflammasome and can also amplify LPS-mediated activation of NLRP3 and pro-IL-1β at the mRNA and protein level, we wondered if it could activate the NLRP3 inflammasome independent of an LPS-mediated priming step. Unprimed and immortalized WT and Capsase-1^−/− microglial cells were treated with aggregated αSyn for 4 h. As assessed via immunoblot, aggregated αSyn induced pro-IL-1β and NLRP3 to equivalent levels in both cell types (FIG. 19A). It also brought about the secretion of IL-1β in WT, and to a strikingly lower extent in the Caspase-1 deficient microglial cells. […] We next utilized primary BMDMs from WT, NLRP3^−/−, Caspase-1^−/− and Caspase-11^−/− mice to test the ability of αSyn to activate the NLRP3 inflammasome in them. As expected, we saw no genotypic difference in the ability of macrophages to induce pro-IL-1β and import αSyn (FIG. 19C). […]

[6] = tested on: LPS-primed primary murine microglia; assay: αSyn-induced IL-1β and TNFα production in LPS-primed primary microglia; assay type: cell-based; conditions: pre-treatment post priming, before αSyn; FIG. 14A
Procedure: Misfolded proteins can activate the NLRP3 inflammasomes in microglia (Hafner-Bratkovic et al., 2012; Halle et al., 2008). After obtaining and purifying human αSyn (FIG. 15), we determined that endotoxin contamination was minimal, and that an equivalent concentration of LPS could not activate pro-inflammatory signaling in microglia (data not shown). Aggregation of αSyn was performed as previously described (Zhang et al., 2005). LPS-primed primary murine microglia were treated with α-synuclein for 24 h, with or without the pre-treatment of the pan-Caspase inhibitor ZVAD-FMK or the Caspase-1 specific inhibitor ZYVAD-FMK. […] Next, we treated LPS-primed bone marrow-derived macrophages (BMDMs) from WT, NLRP3^−/−, ASC^−/−, Caspase-1^−/− and Caspase-11^−/− mice with aggregated human α-synuclein for 24 h (FIG. 14B). […] By immunoblotting the levels of pro-IL-1β produced upon LPS treatment (FIG. 14C, 14D), we confirmed that none of these proteins played a role in the priming of the NLRP3 inflammasome. Next, we assessed the inflammasome activating ability of aggregated human αSyn in primary murine microglia by staining for ASC in LPS and LPS+αSyn treated microglia. […] We also utilized the ASC-CFP reporter cell line, which overexpresses ASC tagged with cyan fluorescent protein (CFP). NLRP3 inflammasome activation causes ASC to coalesce into a single speck within each cell. We counted the number of ASC-positive specks to measure inflammasome activation. ASC-CFP cells were primed with LPS and treated with aggregated αSyn for 2 h. Endogenous CFP fluorescence was assessed. In the αSyn treated group, specks of ASC were observed, indicating inflammasome activation (FIG. 14G). […] In summary, aggregated αSyn acts as an efficient danger signal to activate the NLRP3 inflammasome. Data from the A53T model and from PD patient lysates provide in vivo relevance as well. We also observed increased Fyn expression within the microglia in PD tissues, when compared to age-matched control tissues (FIG. 16).

CN1CCN(CCOc2cc(OC3CCOCC3)c3c(Nc4c(Cl)ccc5c4OCO5)ncnc3c2)CC1 [Saracatinib]
cytotoxic cell death ([1]; 1-30 μM pretreatment, then aggregated α-synuclein (1 μM) for 24 hours): did not induce cytotoxic cell death | cell death ([1]; low dose): not associated with cell death | activation of microglia in the substantia nigra ([2]; MPTP-treated mice): blocked activation of microglia | expression of IBA-1 in SN tissue (Western blot) [2]: not in Saracatinib and MPTP-treated animals | expression of IBA-1 in SN tissue (Western blot) ([2]; listed as saracatinib): attenuated the expression of IBA-1 | IL-1β production induced by aggregated α-synuclein [3]: significantly attenuated; also recorded: attenuates the secretion | IL-12 production induced by aggregated α-synuclein [3]: significantly attenuated; also recorded: attenuates the secretion | TNF-α production induced by aggregated α-synuclein [3]: significantly attenuated; also recorded: attenuates the secretion | nitrite production induced by aggregated α-synuclein ([4]; 10 μM dose): attenuates the nitrite production | aggregated α-synuclein induced nitrite production ([4]; 1-30 μM pretreatment, aggregated α-synuclein (1 μM) 24 hours): significantly blocked aggregated α-synuclein induced nitrite production in a dose-dependent manner | αSyn-induced secretion of IL-1β [5]: inhibited by pre-treatment with the Fyn inhibitor Saracatinib in a dose-dependent manner; also recorded: inhibited with pretreatment of the Fyn inhibitor Saracatinib in a dose dependent manner

COC(=O)C[C@H](NC(=O)[C@H](C)NC(=O)[C@@H](NC(=O)OCc1ccccc1)C(C)C)C(=O)CF [ZVAD-FMK] (Cbz-Val-Ala-Asp(OMe)-CH2F)
secretion/production of TNFα [6]: only marginally reduced | αSyn-induced IL-1β cleavage and secretion [6]: reduced in the group pre-treated with the Caspase inhibitors

COC(=O)C[C@H](NC(=O)[C@H](C)NC(=O)[C@@H](NC(=O)[C@H](Cc1ccc(O)cc1)NC(=O)OCc1ccccc1)C(C)C)C(=O)CF [ZYVAD-FMK]
secretion/production of TNFα [6]: only marginally reduced | αSyn-induced IL-1β cleavage and secretion [6]: reduced in the group pre-treated with the Caspase inhibitors
